In patent US11807835B2, “Detergent compositions containing a stabilized enzyme by phosphonates” (ECOLAB USA INC., priority 2016, dated 2023):

Test system: protease
Test: Protease activity retention in detergent use solution (4000 ppm, 5 GPG water; peptidyl substrate, glycine buffer pH 9.0)
Type: biochemical
Conditions: for Relative Protease Enzyme Activity: use solution at 120° F.
Experimental: The enzyme activities in the detergents with different phosphonate levels were tested at 4000 ppm in 5 grains per gallon (GPG) water at 120° F. with various time points collected up to 4 hours, after a use solution was generated from the detergent composition. During the tests, the samples at different time points were collected and immediately frozen in an acetone/dry ice bath and stored in −80° C. before the activity of the enzyme was evaluated. For the use of such an assay, t=0 min was the reference point for 100% enzyme activity.
Assays of enzyme activity in formulations (% retention) were conducted to simulate a presoak condition in a beaker using the chemistry, temperature, and pH conditions relevant to manual warewash or presoak applications. Enzyme activity is an indicator of the stability of the enzyme in the detergent, specifically in an aqueous use solution within a sump (which is under conditions of high pH, temperature and dilution).
The analysis by protease assay was conducted as follows. For the assays, a detergent composition was used to generate an aqueous use solution evaluated herein.
Enzyme activity under presoak or manual warewash conditions was traced quantitatively using a standard protease assay. Samples were prepared under bench top conditions, whereby the use solution from a detergent composition or detergent was obtained and maintained at a presoak or manual warewash temperature in a stirring water bath. After the time course for assessing enzyme stability is initiated, aliquots were taken at various time points and flash-frozen. A time=0 sample was prepared for each series by dissolving the detergent formulation at room temperature, mixing thoroughly, and flash freezing. Samples were thawed and diluted as necessary in an assay buffer usually for use in the protease assay. A glycine buffer at pH 9.0 is used here. The assay monitored the direct reaction of the protease on a small, commercially available peptidyl substrate, with liberation of the product providing correlation to the active enzyme content. The product was detected using a plate reader with an appreciable dynamic range (upper absorbance limit of the instrument >3.5). Enzyme activity levels were assessed relative to a calibration curve with average values for replicate tests used to map protease stability under presoak or manual warewash use conditions. Enzyme retention at each time point was calculated as the % enzyme activity relative to the time=0 sample.

[1] = base formula, phosphonate 0.6 wt-%, time 0 min
[2] = base formula, phosphonate 0.6 wt-%, time 5 min
[3] = base formula, phosphonate 0.6 wt-%, time 10 min
[4] = base formula, phosphonate 0.6 wt-%, time 20 min
[5] = base formula, phosphonate 0.6 wt-%, time 40 min
[6] = base formula, phosphonate 0.6 wt-%, time 60 min
[7] = base formula, phosphonate 0.6 wt-%, time 90 min
[8] = base formula, phosphonate 0.6 wt-%, time 120 min
[9] = base formula, phosphonate 0.6 wt-%, time 150 min
[10] = base formula, phosphonate 0.6 wt-%, time 180 min
[11] = base formula, phosphonate 0.6 wt-%, time 210 min
[12] = base formula, phosphonate 0.6 wt-%, time 240 min
[13] = base formula, phosphonate at 0.1% elemental phosphorus, time 0 min
[14] = base formula, phosphonate at 0.1% elemental phosphorus, time 5 min
[15] = base formula, phosphonate at 0.1% elemental phosphorus, time 10 min
[16] = base formula, phosphonate at 0.1% elemental phosphorus, time 20 min
[17] = base formula, phosphonate at 0.1% elemental phosphorus, time 40 min
[18] = base formula, phosphonate at 0.1% elemental phosphorus, time 60 min
[19] = base formula, phosphonate at 0.1% elemental phosphorus, time 90 min
[20] = base formula, phosphonate at 0.1% elemental phosphorus, time 120 min
[21] = base formula, phosphonate at 0.1% elemental phosphorus, time 150 min
[22] = base formula, phosphonate at 0.1% elemental phosphorus, time 180 min
[23] = base formula, phosphonate at 0.1% elemental phosphorus, time 210 min
[24] = base formula, phosphonate at 0.1% elemental phosphorus, time 240 min

Polyamino Polyether Methylene Phosphonic Acid [PAPEMP]
Relative Protease Enzyme Activity (base formula, phosphonate 0.3 wt-%, lower half of Table 4A, time 5): 107.31%
Relative Protease Enzyme Activity (base formula, phosphonate 0.3 wt-%, lower half of Table 4A, time 20): 105.51%
Relative Protease Enzyme Activity (base formula, phosphonate 0.3 wt-%, lower half of Table 4A, time 90): 96.21%
Relative Protease Enzyme Activity (base formula, phosphonate 0.3 wt-%, lower half of Table 4A, time 120): 99.48%
Relative Protease Enzyme Activity (base formula, phosphonate 0.3 wt-%, lower half of Table 4A, time 150, unit not given): 93.74%
Relative Protease Enzyme Activity (base formula, phosphonate 0.3 wt-%, lower half of Table 4A, time 210): 92.79%
Relative Protease Enzyme Activity (base formula, phosphonate 0.3 wt-%, lower half of Table 4A, time '0'): 100.00%
Relative Protease Enzyme Activity (base formula, phosphonate 0.3 wt-%, lower half of Table 4A, time '40'): 100.17%
Relative Protease Enzyme Activity (base formula, phosphonate 0.3 wt-%, lower half of Table 4A, time 'Blank'): 100.00%
Relative Protease Enzyme Activity (base formula, phosphonate 0.3 wt-%, lower half of Table 4A, time row printed '10'): 109.98%
Relative Protease Enzyme Activity (base formula, phosphonate 0.3 wt-%, lower half of Table 4A, time row printed '60'): 89.50%
Relative Protease Enzyme Activity (base formula, phosphonate 0.3 wt-%, lower half of Table 4A, time row printed '180'): 86.60%
Relative Protease Enzyme Activity [1]: 100.00%
Relative Protease Enzyme Activity [2]: 98.49%
Relative Protease Enzyme Activity [3]: 96.69%
Relative Protease Enzyme Activity [4]: 93.71%
Relative Protease Enzyme Activity [5]: 92.60%
Relative Protease Enzyme Activity [6]: 92.60%
Relative Protease Enzyme Activity [7]: 86.28%
Relative Protease Enzyme Activity [8]: 88.30%
Relative Protease Enzyme Activity [9]: 89.66%
Relative Protease Enzyme Activity [10]: 86.90%
Relative Protease Enzyme Activity [11]: 87.49%
Relative Protease Enzyme Activity [12]: 86.53%
Relative Protease Enzyme Activity [13]: 100.00%
Relative Protease Enzyme Activity [14]: 95.74%
Relative Protease Enzyme Activity [15]: 95.47%
Relative Protease Enzyme Activity [16]: 92.78%
Relative Protease Enzyme Activity [17]: 86.55%
Relative Protease Enzyme Activity [18]: 87.49%
Relative Protease Enzyme Activity [19]: 86.61%
Relative Protease Enzyme Activity [20]: 86.34%
Relative Protease Enzyme Activity [21]: 84.01%
Relative Protease Enzyme Activity [22]: 71.92%
Relative Protease Enzyme Activity [23]: 80.74%
Relative Protease Enzyme Activity [24]: 79.08%

O=C(O)CCC(CC(=O)O)(C(=O)O)P(=O)(O)O (stereo not shown) [PBTC, Phosphonebutane tricarboxylic acid]
Relative Protease Enzyme Activity (All Ash formula, phosphonate 0.3 wt-%, time 0 min): 100.00%
Relative Protease Enzyme Activity (All Ash formula, phosphonate 0.3 wt-%, time 5 min): 11.99%
Relative Protease Enzyme Activity (All Ash formula, phosphonate 0.3 wt-%, time 10 min): 3.18%
Relative Protease Enzyme Activity (All Ash formula, phosphonate 0.3 wt-%, time 20 min): −0.81%
Relative Protease Enzyme Activity (All Ash formula, phosphonate 0.3 wt-%, time 40 min): −1.79%
Relative Protease Enzyme Activity (All Ash formula, phosphonate 0.3 wt-%, time 60 min): −1.94%
Relative Protease Enzyme Activity (All Ash formula, phosphonate 0.3 wt-%, time 90 min): −1.57%
Relative Protease Enzyme Activity (All Ash formula, phosphonate 0.3 wt-%, time 120 min): −1.11%
Relative Protease Enzyme Activity (All Ash formula, phosphonate 0.3 wt-%, time 150 min): −1.04%
Relative Protease Enzyme Activity (All Ash formula, phosphonate 0.3 wt-%, time 180 min): −2.62%
Relative Protease Enzyme Activity (All Ash formula, phosphonate 0.3 wt-%, time 210 min): −3.07%
Relative Protease Enzyme Activity (All Ash formula, phosphonate 0.3 wt-%, time 240 min): −2.02%
Relative Protease Enzyme Activity (base formula, phosphonate 0.3 wt-%, time 0 min): 100.00%
Relative Protease Enzyme Activity (base formula, phosphonate 0.3 wt-%, time 5 min): 52.04%
Relative Protease Enzyme Activity (base formula, phosphonate 0.3 wt-%, time 10 min): 30.98%
Relative Protease Enzyme Activity (base formula, phosphonate 0.3 wt-%, time 20 min): 14.75%
Relative Protease Enzyme Activity (base formula, phosphonate 0.3 wt-%, time 40 min): 7.33%
Relative Protease Enzyme Activity (base formula, phosphonate 0.3 wt-%, time 60 min): 5.15%
Relative Protease Enzyme Activity (base formula, phosphonate 0.3 wt-%, time 90 min): 4.01%
Relative Protease Enzyme Activity (base formula, phosphonate 0.3 wt-%, time 120 min): 2.91%
Relative Protease Enzyme Activity (base formula, phosphonate 0.3 wt-%, time 150 min): 2.21%
Relative Protease Enzyme Activity (base formula, phosphonate 0.3 wt-%, time 180 min): 1.52%
Relative Protease Enzyme Activity (base formula, phosphonate 0.3 wt-%, time 210 min): 1.01%
Relative Protease Enzyme Activity (base formula, phosphonate 0.3 wt-%, time 240 min): 0.63%
Relative Protease Enzyme Activity [1]: 100.00%
Relative Protease Enzyme Activity [2]: 60.27%
Relative Protease Enzyme Activity [3]: 35.81%
Relative Protease Enzyme Activity [4]: 16.27%
Relative Protease Enzyme Activity [5]: 7.44%
Relative Protease Enzyme Activity [6]: 4.84%
Relative Protease Enzyme Activity [7]: 2.96%
Relative Protease Enzyme Activity [8]: 1.76%
Relative Protease Enzyme Activity [9]: 1.32%
Relative Protease Enzyme Activity [10]: 0.91%
Relative Protease Enzyme Activity [11]: 0.70%
Relative Protease Enzyme Activity [12]: 0.39%
Relative Protease Enzyme Activity [13]: 100.00%
Relative Protease Enzyme Activity [14]: 86.68%
Relative Protease Enzyme Activity [15]: 55.40%
Relative Protease Enzyme Activity [16]: 23.91%
Relative Protease Enzyme Activity [17]: 8.20%
Relative Protease Enzyme Activity [18]: 4.68%
Relative Protease Enzyme Activity [19]: 2.99%
Relative Protease Enzyme Activity [20]: 2.04%
Relative Protease Enzyme Activity [21]: 1.54%
Relative Protease Enzyme Activity [22]: 1.01%
Relative Protease Enzyme Activity [23]: 0.73%
Relative Protease Enzyme Activity [24]: 0.42%
enzyme activity of amine salt of the phosphonate versus non-neutralized phosphonate (phosphonate neutralized with an amine, such as triethanolamine): much improved enzyme activity
